Laboratory results from US20230117034A1, “PYRAZOLOTRIAZINES” (Bayer Aktiengesellschaft, priority 2019, published 2023).

Tests used:
[1] = tested on: BRCA1 mRNA expression in MDA-MB-231 cells; assay: qRT-PCR assay: BRCA1 mRNA expression in MDA-MB-231; type: cell-based, human; settings: Homo sapiens, MDA-MB-231, Inhibition of BRCA1 mRNA expression in MDA-MB-231 cells; median; read-out: RTqPCR-MDA-MB-231, IC50, BRCA1 (median)
How it was run: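 MDA-MB-231 cells, 200,000/well, treated 24 h after plating with continuous 24 h compound exposure. RNA extracted, 600 ng reverse-transcribed, BRCA1 measured by RT-qPCR normalized to GAPDH.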

[2] = target: T1, CDK12 (nuclear staining in CAL-120 cells) (Homo sapiens, UniProt Q9NYV4); assay: CDK12 nuclear protein level: immunofluorescence/high content analysis (CAL-120); type: cell-based; settings: for DC50: CAL-120 cells, 24 h, immunofluorescence, 50% reduction of nuclear CDK12 staining intensity, median, read-out: CDK12 degradation IF, DC50- [mol/l] (median); for (IC50 CDK12 high ATP) to (Degradation DC50 CDK12) ratio: ratio of IC50 CDK12 high ATP kinase assay to DC50 CDK12 degradation (IF, CAL-120)
T1 construct: endogenous in cells; host or cells: CAL-120 human breast cancer cells (DSMZ ACC 459)
T1 sequence (Q9NYV4 whole entry): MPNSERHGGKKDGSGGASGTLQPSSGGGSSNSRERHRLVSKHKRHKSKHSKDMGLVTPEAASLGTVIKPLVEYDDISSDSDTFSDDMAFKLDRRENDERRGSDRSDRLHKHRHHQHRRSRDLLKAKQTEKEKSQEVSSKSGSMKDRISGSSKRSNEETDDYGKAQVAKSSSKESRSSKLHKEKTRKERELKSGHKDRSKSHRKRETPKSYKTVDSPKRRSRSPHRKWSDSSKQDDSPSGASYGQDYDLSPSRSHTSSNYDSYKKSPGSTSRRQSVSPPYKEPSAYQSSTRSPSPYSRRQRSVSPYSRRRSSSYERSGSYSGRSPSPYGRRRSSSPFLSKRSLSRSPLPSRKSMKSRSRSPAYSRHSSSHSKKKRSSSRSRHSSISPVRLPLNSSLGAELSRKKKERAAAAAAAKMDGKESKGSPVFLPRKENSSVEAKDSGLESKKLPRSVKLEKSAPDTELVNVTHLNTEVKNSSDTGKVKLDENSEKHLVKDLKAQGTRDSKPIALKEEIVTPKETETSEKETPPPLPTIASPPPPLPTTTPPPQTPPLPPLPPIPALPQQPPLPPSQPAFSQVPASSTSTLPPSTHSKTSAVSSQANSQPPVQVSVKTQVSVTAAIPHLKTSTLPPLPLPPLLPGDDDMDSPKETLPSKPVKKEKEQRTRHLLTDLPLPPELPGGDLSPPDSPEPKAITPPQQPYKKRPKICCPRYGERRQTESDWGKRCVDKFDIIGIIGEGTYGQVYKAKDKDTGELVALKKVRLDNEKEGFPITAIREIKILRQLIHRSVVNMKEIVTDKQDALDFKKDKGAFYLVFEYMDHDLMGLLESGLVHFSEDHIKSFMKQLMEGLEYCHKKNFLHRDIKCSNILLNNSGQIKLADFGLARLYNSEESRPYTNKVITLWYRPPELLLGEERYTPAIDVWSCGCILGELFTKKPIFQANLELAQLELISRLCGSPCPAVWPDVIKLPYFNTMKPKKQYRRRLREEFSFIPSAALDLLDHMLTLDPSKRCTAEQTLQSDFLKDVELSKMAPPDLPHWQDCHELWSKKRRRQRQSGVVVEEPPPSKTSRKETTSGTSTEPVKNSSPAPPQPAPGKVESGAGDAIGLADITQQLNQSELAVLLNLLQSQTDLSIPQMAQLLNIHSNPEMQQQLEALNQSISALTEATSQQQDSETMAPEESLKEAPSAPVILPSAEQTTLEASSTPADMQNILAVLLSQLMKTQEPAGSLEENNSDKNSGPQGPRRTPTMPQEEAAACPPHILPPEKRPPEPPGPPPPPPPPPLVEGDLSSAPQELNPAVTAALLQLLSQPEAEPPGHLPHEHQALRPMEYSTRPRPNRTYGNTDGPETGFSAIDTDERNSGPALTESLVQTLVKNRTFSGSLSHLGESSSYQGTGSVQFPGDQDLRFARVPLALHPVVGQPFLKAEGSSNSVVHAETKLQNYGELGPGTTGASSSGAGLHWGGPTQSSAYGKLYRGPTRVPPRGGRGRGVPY
T1 sequence (O75909 whole entry partner): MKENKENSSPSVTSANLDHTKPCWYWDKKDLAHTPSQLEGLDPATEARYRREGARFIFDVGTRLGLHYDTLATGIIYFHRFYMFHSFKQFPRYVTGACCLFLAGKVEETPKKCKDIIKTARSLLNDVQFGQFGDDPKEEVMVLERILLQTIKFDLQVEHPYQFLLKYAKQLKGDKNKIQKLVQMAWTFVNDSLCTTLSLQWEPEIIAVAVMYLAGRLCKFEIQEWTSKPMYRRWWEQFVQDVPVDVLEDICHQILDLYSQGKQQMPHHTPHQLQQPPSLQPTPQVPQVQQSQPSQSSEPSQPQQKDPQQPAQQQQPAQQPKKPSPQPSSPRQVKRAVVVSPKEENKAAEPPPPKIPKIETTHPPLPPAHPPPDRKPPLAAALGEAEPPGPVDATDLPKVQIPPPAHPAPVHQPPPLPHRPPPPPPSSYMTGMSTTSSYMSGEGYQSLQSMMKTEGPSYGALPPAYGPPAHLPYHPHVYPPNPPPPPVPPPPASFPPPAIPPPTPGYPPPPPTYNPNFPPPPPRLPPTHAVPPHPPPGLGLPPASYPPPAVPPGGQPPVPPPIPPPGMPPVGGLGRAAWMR
How it was run: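 CAL-120 cells were treated with compound for 24 h at 37 °C, fixed with PFA and immunostained for CDK12. Nuclear CDK12 intensity was quantified by automated image analysis and normalized to DMSO and control. DC50 is the concentration giving 50% reduction of nuclear staining.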

[3] = tested on: MDA-MB-231, human breast cancer cells; assay: Proliferation assay MDA-MB-231 (crystal violet, 4 days); type: cell-based; settings: Homo sapiens, MDA-MB-231, 96 h, MDA-MB-231 cells, median, read-out: Prolif-MDA MB-231, IC50-[mol/l] (median)
How it was run: (§1)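 CAL-120 or MDA-MB-231 cells grown 24 h, then exposed 4 days to compound (0.01–10 micromol/L, 0.1% DMSO). Crystal violet staining, absorbance at 595 nm, normalised to a zero-point plate (0%) and untreated cells (100%); IC50 by 4-parameter fit.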

[4] = target: T2, CYCLIN K (nuclear staining in CAL-120 cells) (Homo sapiens, UniProt O75909); assay: CYCLIN K nuclear protein level: immunofluorescence high content analysis (CAL-120); type: cell-based; settings: 24 h, 50% reduction of nuclear CCNK staining intensity, median, read-out: CYCLIN K degradation IF, DC50-[mol/l] (median)
T2 construct: endogenous in cells; host or cells: CAL-120 human breast cancer cells (DSMZ ACC 459)
T2 sequence (O75909 whole entry): as the sequence (O75909 whole entry partner) above
T2 sequence (Q9NYV4 whole entry partner): as the sequence (Q9NYV4 whole entry) above
How it was run: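 CAL-120 breast cancer cells treated in dose-response for 24 h at 37 °C, PFA-fixed and immunostained for cyclin K with Hoechst counterstain. Confocal imaging quantified nuclear intensity; DC50 is the concentration giving 50% reduction of nuclear CCNK staining, normalized to DMSO and control.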

[5] = tested on: CAL-120, human breast adenocarcinoma cells; assay: Proliferation assay CAL-120 (crystal violet, 4 days); type: cell-based; settings: Homo sapiens, CAL-120, 96 h, CAL-120 cells, median, read-out: Prolif-CAL-120, IC50-[mol/l] (median)
How it was run: as §1

Row | Compound | IC50 [1] | DC50 [2] | (IC50 CDK12 high ATP) to (Degradation DC50 CDK12) ratio [2] | IC50 [3] | DC50 [4] | IC50 [5]
1 | CC(C)c1cnn2c(NCc3nnc(-c4ccccc4)[nH]3)nc(N3CCOCC3)nc12 [Example 33, 2-(morpholin-4-yl)-N-[(5-phenyl-4H-1,2,4-triazol-3-yl)methyl]-8-(propan-2-yl)pyrazolo[1,5-a][1,3,5]triazin-4-amine] | 23.7 nM | 67.8 nM | 77 | 290 nM |  | 
2 | CC(C)c1cnn2c(NCc3nnc(-c4ccccc4)[nH]3)nc(N(C)CC(C)(C)O)nc12 [Example 39, 2-methyl-1-{methyl[4-{[(5-phenyl-4H-1,2,4-triazol-3-yl)methyl]amino}-8-(propan-2-yl)pyrazolo[1,5-a][1,3,5]triazin-2-yl]amino}propan-2-ol] | 92.3 nM | 41.4 nM | 113 |  | 8.13 nM | 
3 | Clc1ccc(-c2nnc(CNc3nc(N4CCOCC4)nc4c(Br)cnn34)[nH]2)cc1 [Example 45, 8-bromo-N-{[5-(4-chlorophenyl)-4H-1,2,4-triazol-3-yl]methyl}-2-(morpholin-4-yl)pyrazolo[1,5-a][1,3,5]triazin-4-amine] | 99 nM | 69.2 nM | 32 |  | 44.4 nM | 89.1 nM
4 | Brc1cnn2c(NCc3nc4ccccc4[nH]3)nc(N3CCCCC3)nc12 [Example 46, N-[(1H-benzimidazol-2-yl)methyl]-8-bromo-2-(piperidin-1-yl)pyrazolo[1,5-a][1,3,5]triazin-4-amine] | 12.5 nM | 18 nM | 186 |  | 1.54 nM | 238 nM
5 | Cc1cnn2c(NCc3nc4c(F)c(F)ccc4[nH]3)nc(N3CC4CCC(C3)N4)nc12 [Example 400, 2-(3,8-diazabicyclo[3.2.1]octan-3-yl)-N-[(4,5-difluoro-1H-benzimidazol-2-yl)methyl]-8-methylpyrazolo[1,5-a][1,3,5]triazin-4-amine] | 14 nM | 6.15 nM | >2712 | 20.3 nM |  | 5.23 nM
6 | FC(F)n1cc(-c2cnn3c(NCc4nc5ccccc5[nH]4)nc(N4CCOCC4)nc23)cn1 [Example 421, N-[(1H-benzimidazol-2-yl)methyl]-8-[1-(difluoromethyl)-1H-pyrazol-4-yl]-2-(morpholin-4-yl)pyrazolo[1,5-a][1,3,5]triazin-4-amine] | 74.6 nM | 21.6 nM | 397 | 87.5 nM |  | 38.3 nM
7 | COc1ccccc1-c1nnc(CNc2nc(N3CCN(C)CC3)nc3c(C4CC4(F)F)cnn23)[nH]1 (centres unmarked) [Example 430, 8-(2,2-difluorocyclopropyl)-N-{[5-(2-methoxyphenyl)-4H-1,2,4-triazol-3-yl]methyl}-2-(4-methylpiperazin-1-yl)pyrazolo[1,5-a][1,3,5]triazin-4-amine] | 10 nM | 25.3 nM | >789 | 81.5 nM |  | 38.6 nM
8 | O=C(O)C(F)(F)F.c1ccc2[nH]c(CNc3nc(N4CCOCC4)nc4c(-c5ccnnc5)cnn34)nc2c1 [Example 438, trifluoroacetic acid N-[(1H-benzimidazol-2-yl)methyl]-2-(morpholin-4-yl)-8-(pyridazin-4-yl)pyrazolo[1,5-a][1,3,5]triazin-4-amine] |  | 138 nM | >57 | 283 nM |  | 44.6 nM

Continued by falling DC50 [2], values first:

Row | IC50 [1] | DC50 [2] | (IC50 CDK12 high ATP) to (Degradation DC50 CDK12) ratio [2] | IC50 [3] | DC50 [4] | IC50 [5] | Compound
9 | 6.2 nM | 17.8 nM | >720 | 18.2 nM |  | 12.3 nM | FC(F)n1cc(-c2cnn3c(NCc4nc5cc(Cl)c(Cl)cc5[nH]4)nc(N4CCOCC4)nc23)cn1 [Example 423, N-[(5,6-dichloro-1H-benzimidazol-2-yl)methyl]-8-[1-(difluoromethyl)-1H-pyrazol-4-yl]-2-(morpholin-4-yl)pyrazolo[1,5-a][1,3,5]triazin-4-amine]
10 | 10 nM | 12.7 nM | >449 | 48.6 nM |  |  | CCNc1nc(NCc2ncc(-c3ccccc3)[nH]2)n2ncc(C(C)C)c2n1 [Example 34, N^2-ethyl-N^4-[(5-phenyl-1H-imidazol-2-yl)methyl]-8-(propan-2-yl)pyrazolo[1,5-a][1,3,5]triazine-2,4-diamine]
11 | 69.9 nM | 9.58 nM | >1754 |  | 5.35 nM | 131 nM | N#Cc1cnn2c(NCc3nc4ccccc4[nH]3)nc(N3CCOCC3)nc12 [Example 43, 4-{[(1H-benzimidazol-2-yl)methyl]amino}-2-(morpholin-4-yl)pyrazolo[1,5-a][1,3,5]triazine-8-carbonitrile]
12 | 2.7 nM | 6.67 nM | >2996 | 21.4 nM |  | 7.39 nM | Clc1cc2nc(CNc3nc(N4CCOCC4)nc4c(-c5ccnnc5)cnn34)[nH]c2cc1Cl.O=C(O)C(F)(F)F [Example 440, trifluoroacetic acid N-[(5,6-dichloro-1H-benzimidazol-2-yl)methyl]-2-(morpholin-4-yl)-8-(pyridazin-4-yl)pyrazolo[1,5-a][1,3,5]triazin-4-amine]
13 | 23.2 nM | 5.75 nM | 1252 |  | 3.98 nM | 23.9 nM | Brc1cnn2c(NCc3nc4ccccc4[nH]3)nc(N3CCCC3)nc12 [Example 47, N-[(1H-benzimidazol-2-yl)methyl]-8-bromo-2-(pyrrolidin-1-yl)pyrazolo[1,5-a][1,3,5]triazin-4-amine]
14 | 11.4 nM | 5.65 nM | >3303 | 19.8 nM |  | 4.32 nM | Cc1cnn2c(NCc3nc4c(F)c(F)ccc4[nH]3)nc(N3CCN(C)CC3)nc12 [Example 394, N-[(4,5-difluoro-1H-benzimidazol-2-yl)methyl]-8-methyl-2-(4-methylpiperazin-1-yl)pyrazolo[1,5-a][1,3,5]triazin-4-amine]
15 |  | 4.65 nM | 850 | 180 nM |  | 36.3 nM | COc1cccc2nc(CNc3nc(N4CCOCC4)nc4c(-c5ccnnc5)cnn34)[nH]c12.O=C(O)C(F)(F)F [Example 439, trifluoroacetic acid N-[(7-methoxy-1H-benzimidazol-2-yl)methyl]-2-(morpholin-4-yl)-8-(pyridazin-4-yl)pyrazolo[1,5-a][1,3,5]triazin-4-amine]
16 | 14.6 nM | 4.58 nM | 532 |  | 0.611 nM | 23.1 nM | Cc1cccc(-c2nnc(CNc3nc(N4CCOCC4)nc4c(Br)cnn34)[nH]2)c1 [Example 40, 8-bromo-N-{[5-(3-methylphenyl)-4H-1,2,4-triazol-3-yl]methyl}-2-(morpholin-4-yl)pyrazolo[1,5-a][1,3,5]triazin-4-amine]
17 | 2.95 nM | 1.71 nM | 871 |  | 2.58 nM | 1.46 nM | Fc1cccc(-c2nnc(CNc3nc(N4CCOCC4)nc4c(Br)cnn34)[nH]2)c1 [Example 44, 8-bromo-N-{[5-(3-fluorophenyl)-4H-1,2,4-triazol-3-yl]methyl}-2-(morpholin-4-yl)pyrazolo[1,5-a][1,3,5]triazin-4-amine]
